According to patent US20240226287A1, “NOVEL LIPID COMPOUND AND LIPID NANOPARTICLE COMPOSITION COMPRISING THE SAME” (KOREA INSTITUTE OF SCIENCE AND TECHNOLOGY, priority 2022, published 2024):

test system: Renilla Luciferase (R/L) mRNA; experiment: Delivery efficiency: R/L protein expression after i.d. injection of mRNA-LNP into mouse ears (luminescence); assay type: in vivo, ICR mice; conditions: conclusion from FIGS. 4 to 8; replacing cholesterol/butyl lithocholate in LNP
Procedure: mRNA-LNP was injected into the ears of ICR mice by I.D. in an amount of 5 μg/20 μl based on RNA to identify expression.
The experimental process is as follows. Each experimental group was prepared in a dose of 5 μg/20 μl based on RNA and then injected into each ear of mice by I.D. Thereafter, the expression was identified according to the maximum expression time of a target protein. In the case of R/L on which the experiment was actually carried out, expression and maintenance were identified according to two time periods which are 6 hours and 24 hours.
After anesthesia using an individual respiratory anesthesia machine, a drug to be administered that is suitable for the experimental condition was injected via an insulin syringe. Thereafter, euthanasia was performed using CO2 at each corresponding time, and then ears were cut off. While dipping the cut ears in 300 μl of 1× Renilla Lyswas buffer, ears were completely crushed using scissors and a homogenizer instrument. Thereafter, 20 μl was taken from the mixture solution, transferred to a white 96-well plate, and added with 100 μl of Promega's Renilla luciferase assay substrate, and then luminescence was measured to compare expression.

| SMILES | effect as substitute for the structure-retaining compound (R/L expression of the LNP) |
| --- | --- |
| C[C@H](CCC(=O)O)[C@H]1CC[C@H]2[C@@H]3CC[C@@H]4CC(=O)CC[C@]4(C)[C@H]3CC[C@]12C [3-oxo-5β-cholanoic acid] | excellent effects |
| CC1=C(/C=C/C(C)=C/C=C/C(C)=C/C=C/C=C(C)/C=C/C=C(C)/C=C/C2=C(C)CCCC2(C)C)C(C)(C)CCC1 [beta-carotene] | excellent effects |
| O=c1cc(-c2ccc(O)c(O)c2)oc2cc(O)cc(O)c12 [luteolin] | excellent effects |
